# Assay results taken from patent US9956199B2, “Chromane-like cyclic prenylflavonoids for the medical intervention in neurological disorders” (priority 2011, dated 2018).
# Entries after “also recorded” stand apart in the source; their conditions may differ.
# What was measured:
# [1] = system: chicken dorsal root ganglion neurons; assay: neurite outgrowth in primary chicken dorsal root ganglion neurons; assay type: cell-based; details: E8 and E15 DRG neurons, 12 to 24 hours; compound 1a 10 μM, NGF 20 ng/ml; GAP-43 staining
# Description: Dorsal root ganglion neurons comprise of an axon with two branches and are a good model for neuronal differentiation. Embryonic day 8 and 15 chicken dorsal root ganglions were examined for immunochemical staining with GAP43 after incubation with NGF 20 ng/ml and compound 1a (ENDF1) 10 μM to analyze whether compound 1a alone or in combination with the nerve growth factor enhances neurite outgrowth and branching.
# Embryonic day (E) 8 and E15 chicken Dorsal Root Ganglions (DRGs) were prepared as described in: Aigner, 1993; Aigner, 1995. Briefly, foetuses were taken out of the egg, decapitated and the DRGs were targeted from the ventral side. The 10 lumbar region DRGs per foetus were dissected, and a total of 100 DRGs were collected in 10 ml DPBS in a 15 ml Falcon tube. DRGs were centrifuged 120×g for 3 min and then enzymatically treated with 1 ml trypsin 0.5 mg/ml+EDTA 0.22 mg/ml (PAA, Pasching, Austria) for 15 min. Then, 9 ml of DMEM 10% FCS were added to inactivate the trypsin and DRGs were centrifuged 120×g for 5 min. DRGs were resuspended and washed with 5 ml of DMEM 10% FCS, pipetted up and down to dissociate them, centrifuged, resuspended in 5 ml of DMEM 10% FCS and transferred into a 60 mm diameter cell culture dish. […]
# PC12 cells [2] = assay: PC12 cobalt-chloride stress test, Caspase 3/7 activation; assay type: cell-based, rat; details: CoCl2 300 μM, 24 hours; compounds 10 μM, NGF 50 ng/ml; FIG. 7A
# Description: (§1) For the neuroprotection assay PC12 cells were stressed with cobalt chloride 300 μM for 24 hours and the activity of Caspase 3/7 and LDH release were measured. NGF 50 ng/ml was used as a positive control for Caspase 3/7 activity and NGF 100 ng/ml was used as a positive control for LDH release.
# (§2) For the PC12-CoCl2-Assay PC12 cells were used (ATCC: CRL-1721 ™). These cells were growing in RPMI supplemented with 10% Horse Serum (heat inactivated) (Sigma Aldrich, Taufkirchen, Germany), 5% Fetal Bovine Serum (Lonza, Wuppertal, Germany), 2.5% Penicillin/Streptomycin and Glutamine (PAA, Pasching, Austria) as adherent cultures when the plates are coated with Poly-L-ornithine ([…] in water) for at least one hour at 37° C. For passaging PC12-cells were resuspended with Accutase (PAA, Pasching, Austria) for 10 minutes at 37° C. once a week.
# (§3) For all experiments cells were plated (quadruplicates) on Poly-L-ornithine-coated 96-well plates at a density of 10^4 cells per well. For Caspase 3/7-measurement cells were seeded in a white 96-well-plate to detect luminescence. As positive-control for neuroprotection Nerve Growth Factor (NGF) (50 ng/ml and 100 ng/ml) was used. To induce hypoxia CoCl2 (300 μM) was added to the cells after 20-24 hours. The control-treatment was compound 1a (ENDF1), compound 1b (ENDF3), compound 3a (ENDF2), ENDF4 or Osajin in the concentrations 1 μM and 10 μM in proliferation-media without CoCl2.
# For Caspase 3/7-activation Caspase 3/7 substrate was added to the cells in an equal amount 22 hours after stimulation. Plates are incubated for 2 hours at room temperature in the dark, luminescence was measured 24 hours after stimulation and the blank-values are subtracted.
# PC12 cells [3] = assay: PC12 cobalt-chloride stress test, LDH release; assay type: cell-based, rat; details: CoCl2 300 μM, 24 hours; compounds 10 μM, NGF 100 ng/ml; FIG. 7B
# Description: as §1, §2, §3
# For LDH-release cells were centrifuged at 1050 rpm for 5 minutes. After 24 hours of stimulation, the supernatant was mixed in an equal amount with LDH-substrate and incubated in the dark for 30 minutes. Afterwards stop solution was added and absorbance was measured at 490 nm, the blank-values are subtracted.
substance,measurement,setting,value
"NGF: Nerve Growth Factor, positive control for neuroprotection and neurite outgrowth",neurite extension,[1],strongly promote neurite extension; also recorded: potent enhancer of neuronal differentiation
same,protection from CoCl2 induced Caspase 3/7 activity,PC12 cells [2],partially protected; also recorded: inhibits CoCl2 induced Caspase 3/7 activity
same,protection from CoCl2 induced LDH release (cell death),PC12 cells [3],partially protected; also recorded: slightly decrease the LDH release
